Source: patent publication US4970297A, “Transglutaminase inhibitors” (Syntex (U.S.A.) Inc., priority 1987, dated 1990)

Columns and labels:
[1] = test system: Nematospiroides dubius; experiment: In vivo assay of anthelmintic activity, mixed helminth infection in mice; set-up: species or system Swiss-Webster mice; conditions: 1000 ppm in the food ad lib for 11 days from 24 hours post-infection, sacrificed on day 17
Method: (§1) Male, Swiss-Webster mice were challenged with a mixed helminth infection of Nematospiroides dubius and Hymenolepsis nana. Starting 24 hours post-infection (p.i.) mice were treated for 11 days ad lib with N-Benzyloxycarbonyl-D,L-β-(3-bromo-4,5-dihydroisoxazol-5-yl)-alanine benzylamide mixed in the food at 1000 ppm. Animals were sacrificed on day 17 to examine parasite burden in the intestine.

[2] = test system: Hymenolepsis nana; experiment: as above; set-up: species or system Swiss-Webster mice; conditions: 1000 ppm in the food ad lib for 11 days from 24 hours post-infection, sacrificed on day 17
Method: as §1

[3] = test system: Nippostronglus braziliensis; experiment: In vitro assay against Nippostronglus braziliensis; format: cell-based; set-up: key: A compound is defined as active if (1) cast formation is reduced 50 percent or more or (2) viability and motility together are reduced 50 percent or more; conditions: 50 μg/ml, fourth larval stage (L4), incubated at 37° C. for seven days
Method: N-Benzyloxycarbonyl-D,L-β-(3-bromo-4,5-dihydroisoxazol-5-yl)-alanine benzylamide was active against Nippostronglus braziliensis in an in vitro assay.
Rats were inoculated with 5,000 to 6,000 N. braziliensis third stage larvae subcutaneously. Seventy-two hours later rats were sacrificed and the fourth stage larvae harvested. Each drug was tested at 50 μg/ml against the fourth larval stage (L4) of N. braziliensis at approximately 50 L4/well. This mixture was incubated at 37° C. for a total of seven days and then read for activity. Parameters used to determine drug activity are motility, percent viability, and percent of L4 able to molt to the adult (percent cast formation). A compound is defined as active if (1) cast formation is reduced 50 percent or more or (2) viability and motility together are reduced 50 percent or more.

[4] = target: T1, tissue transglutaminase (UniProt P08587); experiment: Inactivation of tissue transglutaminase; format: biochemical
T1 construct: Liver transglutaminase from guinea pig liver was isolated and partially purified; from tissue; host or cells: guinea pig liver
T1 sequence (P08587 whole entry): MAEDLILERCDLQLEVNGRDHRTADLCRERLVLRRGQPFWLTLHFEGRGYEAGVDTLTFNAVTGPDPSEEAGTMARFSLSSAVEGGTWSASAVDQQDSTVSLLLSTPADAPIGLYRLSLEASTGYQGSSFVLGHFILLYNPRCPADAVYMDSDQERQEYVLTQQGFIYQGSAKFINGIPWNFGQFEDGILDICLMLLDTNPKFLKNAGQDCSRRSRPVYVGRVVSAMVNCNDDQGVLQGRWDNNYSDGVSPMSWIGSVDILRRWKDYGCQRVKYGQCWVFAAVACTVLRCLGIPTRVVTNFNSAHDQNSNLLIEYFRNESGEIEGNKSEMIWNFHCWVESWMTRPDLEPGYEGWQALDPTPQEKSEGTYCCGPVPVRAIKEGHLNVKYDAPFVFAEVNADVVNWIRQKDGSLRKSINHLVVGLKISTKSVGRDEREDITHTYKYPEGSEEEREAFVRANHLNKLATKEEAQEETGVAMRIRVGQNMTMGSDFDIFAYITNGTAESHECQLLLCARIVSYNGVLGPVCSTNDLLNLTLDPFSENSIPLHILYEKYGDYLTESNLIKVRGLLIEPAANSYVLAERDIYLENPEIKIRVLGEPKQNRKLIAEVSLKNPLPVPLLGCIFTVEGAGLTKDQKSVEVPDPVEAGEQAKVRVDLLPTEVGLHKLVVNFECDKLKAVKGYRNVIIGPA
Method: Liver transglutaminase from guinea pig liver was isolated and partially purified according to the procedure outlined in "Methods of Enzymology", Vol. 113, pp. 358-375, with minor modifications. The 105,000×g supernatant from the 15,000×g supernatant of a crude homogenate of guinea pig liver, was chromatographed on DEAE-Sepharose CL-6B. Enzymatic activity was eluted with a 0-1.0M NaCl gradient in 5 mM TRIS, 2 mM EDTA pH 7.5 buffer. Fractions containing activity were pooled, dialyzed against 50 mM TRIS-HCl, 2 mM EDTA, pH 7.5 buffer and concentrated, when necessary, by Amicon Ultrafiltration (PM 10 filters).
The activity and inhibition of guinea pig liver transglutaminase was assayed by measurement of the rate of incorporation of hydroxylamine into simple glutaminyl peptide derivatives, preferably CBZ-(L)-Glutaminyl-Glycine (see Folk and Chung, "Methods in Enzymology", Vol. 113, pp. 359-361). […]
Prior to activity determination, guinea pig liver transglutaminase was activated anaerobically with 5 mM calcium chloride and 1 mM dithiothreitol at 25° C. […] The concentration of product formed after 10-25 minutes incubation was determined by quenching with 250 microliters of acidic ferric chloride reagent and measurement of the absorbance at 525 nm using a Gilford 2600 UV/VIS spectrophotometer. Typical uninhibited samples provided sufficient product for 0.5 absorbance units at 525 nm. […]

[5] = test system: galactose-induced cataracts; experiment: Cataract therapy: galactose-induced cataracts; format: in vivo; conditions: oral route in the diet at 0.05%
[6] = test system: human T-lymphocyte; experiment: Human T-lymphocyte transformation in vitro; format: cell-based; conditions: at 10^-6 in vitro
Excerpt: Transglutaminase inactivator, N-benzyloxycarbonyl-D,L-β-(3-bromo-4,5-dihydroisoxazol-5-yl)-alanine (4-(ethoxycarbonyl)phenyl)amide, inhibited human T-lymphocyte transformation at 10^-6 in vitro.

[7] = test system: transglutaminase; conditions: previously reported inhibitors; cited from earlier work

O=C(NC(CC1CC(Br)=NO1)C(=O)NCc1ccccc1)OCc1ccccc1 (racemic) [N-Benzyloxycarbonyl-D,L-β-(3-bromo-4,5-dihydroisoxazol-5-yl)-alanine benzylamide]
percent reduction of parasites in the intestine (Nematospiroides dubius) [1]: significant percent reduction of parasites
percent reduction of parasites in the intestine (Hymenolepsis nana) [2]: significant percent reduction of parasites
activity against Nippostronglus braziliensis (cast formation, viability and motility) [3]: active

CCOC(=O)c1ccc(NC(=O)C(CC2CC(Br)=NO2)NC(=O)OCc2ccccc2)cc1 (racemic) [N-benzyloxycarbonyl-D,L-β-(3-bromo-4,5-dihydroisoxazol-5-yl)-alanine (4-(ethoxycarbonyl)phenyl)amide]
inactivation of tissue transglutaminase [4]: potent inactivator
onset of galactose-induced cataracts [5]: delayed the onset
cytotoxicity associated with the inhibition of T-lymphocyte transformation [6]: not associated with cytotoxicity
inhibition of human T-lymphocyte transformation [6]: inhibited

NCCSSCCN [cystamine]
concentration at which effective as transglutaminase inhibitor [7]: greater than 10^-3 M
specificity for transglutaminases [7]: lacks specificity
